Measurements reported in US6673902B2, “Cyclin D binding factor, and uses thereof” (St. Jude Children's Research Hospital, priority 1996, dated 2004).

Columns and labels:
[1] = system: BS2-driven reporter plasmid; experiment: Transactivation of BS2-driven luciferase reporter in 293T cells; assay type: cell-based, human; details: 1 μg BS2-driven reporter
Description: (§1) An XbaI-EcoRV fragment containing the entire DMP1 coding sequence is subcloned by blunt end ligation into a SpeI-XbaI fragment of the Rc/RSV vector (Invitrogen, La Jolla Calif.) to enable DMP1 expression in mammalian cells. 6×concatamerized BS1, 8×concatamerized, BS2, or 7×concatamerized M3 oligonucleotides (FIG. 5B) are inserted into the XhoI-SmaI sites of pGL2 (Pfornega) 5′ to a minimal simian virus 40 (SV40) early promoter driving firefly luciferase gene expression. The latter “reporter” plasmid (1 μg) together with increasing amounts of pRc/RSV-DMP1 expression plasmid compensated by decreasing quantities of control pRc/RSV DNA (total of both=2.5 μg) were transfected into 293T cells (1.5×10^6 cells per 60 mm diameter culture dish) by calcium phosphate precipitation (7). Two days later, cells were harvested, washed three times with PBS, and lysed in 1 ml of 25 mM glycylglycine (Sigma), pH 7.8, 15 mM MgSO4, 4 mM EDTA, 1 mM DTT, and 1% Triton X-100. After clearing by centrifugation, 50 μl aliquots were assayed diluted to 350 μl using 15 mM potassium phosphate buffer, pH 7.8, containing 15 mM MgSO4, 4 mM EGTA, 2 mM ATP, 1 mM DTT, and 67 uM luciferin (Sigma). Total light emission was measured for duplicate samples during the initial 20 seconds after luciferin injection with an Optocomp I luminometer (MGM Instruments, Hamden Conn.). […]

BS1-driven reporter = experiment: Transactivation of BS1-driven luciferase reporter in 293T cells; assay type: cell-based, human
Description: as §1

DMP1: murine cyclin D-associated myb-like transcription factor, 761 amino acids, SEQ ID NO:1
transactivation of luciferase activity relative to reporter plasmid alone [1]: ~20 fold
activation of the BS1-driven reporter (BS1-driven reporter): 7 fold
